Activity calls are given as the source filed them. The rule behind the calls is not given here.
Columns and labels:
[1] = test system: Streptomyces; assay: Growth inhibition in Streptomyces 85E at 10 ug/disk by hyphae formation inhibition assay; type: functional, organism-based
[2] = test system: Streptomyces; assay: Growth inhibition in Streptomyces 85E at 5 ug/disk by hyphae formation inhibition assay; type: functional, organism-based
[3] = test system: Streptomyces; assay: Growth inhibition in Streptomyces 85E at 2.5 ug/disk by hyphae formation inhibition assay; type: functional, organism-based
[4] = test system: Streptomyces; assay: Growth inhibition in Streptomyces 85E at 20 ug/disk by hyphae formation inhibition assay; type: functional, organism-based
[5] = test system: Streptomyces; assay: Growth inhibition in Streptomyces 85E assessed as clear zone of inhibition at 10 ug/disk by hyphae formation inhibition assay; type: functional; conditions: read-out: IZ
[6] = test system: Streptomyces; assay: Growth inhibition in Streptomyces 85E assessed as bald phenotype around disk at 5 ug/disk by hyphae formation inhibition assay; type: functional; conditions: read-out: IZ
[7] = test system: Streptomyces; assay: Growth inhibition in Streptomyces 85E assessed as clear zone of inhibition at 20 ug/disk by hyphae formation inhibition assay; type: functional; conditions: read-out: IZ
[8] = test system: Streptomyces; assay: Growth inhibition in Streptomyces 85E assessed as bald phenotype around disk at 20 ug/disk by hyphae formation inhibition assay; type: functional; conditions: read-out: IZ
[9] = test system: Streptomyces; assay: Growth inhibition in Streptomyces 85E assessed as bald phenotype around disk at 10 ug/disk by hyphae formation inhibition assay; type: functional; conditions: read-out: IZ
[10] = test system: Streptomyces; assay: Growth inhibition in Streptomyces 85E assessed as bald phenotype around disk at 2.5 ug/disk by hyphae formation inhibition assay; type: functional; conditions: read-out: IZ
[11] = test system: Streptomyces; assay: Growth inhibition in Streptomyces 85E assessed as clear zone of inhibition at 5 ug/disk by hyphae formation inhibition assay; type: functional; conditions: read-out: IZ

Row | Structure (SMILES) | inhibition zone (IZ) [1] | inhibition zone (IZ) [2] | inhibition zone (IZ) [3] | inhibition zone (IZ) [4] | zone of inhibition at 10 µg/disc [5] [mm] | zone of inhibition at 5 µg/disc [6] [mm] | zone of inhibition at 20 µg/disc [7] [mm] | zone of inhibition at 20 µg/disc [8] [mm] | zone of inhibition at 10 µg/disc [9] [mm] | zone of inhibition at 2.5 µg/disc [10] [mm] | zone of inhibition at 5 µg/disc [11] [mm]
1 | C=C(C)C(O)Cc1cc(C(=O)Nc2c(O)c3ccc(O)c(C)c3oc2=O)ccc1O (configuration not stated) | inactive | inactive | inactive | inactive | – | – | – | – | – | – | –
2 | CO[C@@H]1[C@@H](OC(N)=O)[C@@H](O)[C@H](Oc2ccc3c(O)c(NC(=O)c4ccc5c(c4)CC(C(C)C)O5)c(=O)oc3c2C)OC1(C)C (some centres not stated) [COMABIOCIN B] | – | – | inactive | – | 12 | 10 | 14 | – | – | – | –
3 | CO[C@@H]1[C@@H](OC(N)=O)[C@@H](O)[C@H](Oc2ccc3c(O)c(NC(=O)c4ccc5c(c4)CC(C(C)(C)O)O5)c(=O)oc3c2C)OC1(C)C (some centres not stated) [COUMABIOCIN A] | inactive | inactive | inactive | – | – | – | 13 | – | – | – | –
4 | CO[C@@H]1[C@@H](OC(N)=O)[C@@H](O)[C@H](Oc2ccc3c(O)c(NC(=O)c4ccc5c(c4)CCC(C)(C)O5)c(=O)oc3c2C)OC1(C)C [COUMABIOCIN C] | – | inactive | inactive | – | 10 | – | 15 | – | – | – | –
5 | CO[C@@H]1[C@@H](OC(N)=O)[C@@H](O)[C@H](Oc2ccc3c(O)c(NC(=O)c4ccc5c(c4)CC(O)C(C)(C)O5)c(=O)oc3c2C)OC1(C)C (some centres not stated) [COUMABIOCIN D] | inactive | inactive | inactive | – | – | – | 10 | – | – | – | –
6 | C=C(C)C(O)Cc1cc(C(=O)Nc2c(O)c3ccc(O[C@@H]4OC(C)(C)[C@H](OC)[C@@H](OC(N)=O)[C@H]4O)c(C)c3oc2=O)ccc1O (some centres not stated) [COUMABIOCIN E] | inactive | inactive | inactive | – | – | – | 11 | – | – | – | –
7 | CO[C@@H]1[C@@H](O)[C@@H](OC(N)=O)[C@H](Oc2ccc3c(O)c(NC(=O)c4ccc(O)c(CC=C(C)C)c4)c(=O)oc3c2C)OC1(C)C [ISONOVOBIOCIN] | – | inactive | inactive | – | – | – | – | 10 | 9 | – | –
8 | CO[C@@H]1[C@@H](OC(N)=O)[C@@H](O)[C@H](Oc2ccc3c(O)c(NC(=O)c4ccc(O)c(CC=C(C)C)c4)c(=O)oc3c2C)OC1(C)C [NOVOBIOCIN] | – | – | – | – | 18 | – | 20 | – | – | 18 | 15
